Test results as given in ChEMBL document CHEMBL1143555, “Development of low molecular weight HIV-1 protease dimerization inhibitors” (J Med Chem, 2005).

Target: T1, Human immunodeficiency virus type 1 protease (Human immunodeficiency virus 1, UniProt Q72874)
Test: Inhibitory concentration against human immunodeficiency virus-1 protease

Row | SMILES | IC50
1 | CCC(C)[C@@H](NC(=O)[C@H](C(C)O)N(C)C(=O)CCCCCCCCCCCCCCC(=O)NC(Cc1ccc(N)cc1)C(=O)N[C@@H](Cc1ccccc1)C(=O)O)C(=O)NC(CO)C(N)=O (some centres not stated) | 1.2 nM
2 | CC[C@H](C)[C@@H](NC(=O)[C@@H](NC(=O)CCCCCCCCCCCCCCC(=O)N[C@H](CC(=O)N[C@@H](Cc1ccccc1)C(=O)O)C(N)=O)[C@H](C)O)C(=O)N[C@@H](Cc1cc(I)c(O)c(I)c1)C(N)=O | 740000 nM
3 | CCC(C)[C@@H](NC(=O)C(CCc1ccccc1)NC(=O)CCCCCCCCCCCCCCC(=O)N[C@H](CC(=O)N[C@@H](Cc1ccccc1)C(=O)O)C(N)=O)C(=O)N[C@@H](Cc1ccccc1)C(N)=O (some centres not stated) | 980 nM
4 | CCC(C)[C@@H](NC(=O)C(NC(=O)CCCCCCCCCCCCCCC(=O)N[C@H](CC(=O)N[C@@H](Cc1ccccc1)C(=O)O)C(N)=O)c1ccccc1)C(=O)N[C@@H](Cc1ccccc1)C(N)=O (some centres not stated) | 2100 nM
5 | CC(C)C[C@H](NC(=O)[C@@H](NC(=O)CCCCCCCCCCCCCCC(=O)N[C@H](CC(=O)N[C@@H](Cc1ccccc1)C(=O)O)C(N)=O)C(C)O)C(=O)N[C@@H](Cc1ccccc1)C(N)=O (some centres not stated) | 5.4 nM
6 | CCC(C)[C@@H](NC(=O)[C@H](C(C)O)N(C)C(=O)CCCCCCCCCCCCCCC(=O)NC(Cc1ccc(OP(=O)(O)O)cc1)C(=O)N[C@@H](Cc1ccccc1)C(=O)O)C(=O)NC(CO)C(N)=O (some centres not stated) | 2100 nM
7 | CC[C@H](C)[C@@H](NC(=O)[C@@H](NC(=O)CCCCCCCCCCCCCCC(=O)N[C@H](CC(=O)N[C@@H](Cc1ccccc1)C(=O)O)C(N)=O)[C@H](C)O)C(=O)N1Cc2[nH]c3ccccc3c2CC1C(N)=O (some centres not stated) | 3100 nM
8 | CC[C@H](C)[C@@H](NC(=O)[C@@H](NC(=O)CCCCCCCCCCCCCCC(=O)N[C@H](CC(=O)N[C@@H](Cc1ccccc1)C(=O)O)C(N)=O)[C@H](C)O)C(=O)N[C@@H](Cc1ccc(F)c(F)c1)C(N)=O | 872000 nM
9 | CC[C@H](C)[C@@H](NC(=O)[C@H]([C@H](C)O)N(C)C(=O)CCCCCCCCCCCCCCC(=O)NC(Cc1ccc(O)cc1)C(=O)N[C@@H](Cc1ccccc1)C(=O)O)C(=O)NC(CO)C(N)=O (some centres not stated) | 774 nM
10 | CC[C@H](C)[C@@H](NC(=O)[C@@H](NC(=O)CCCCCCCCCCCCCCC(=O)N[C@H](CC(=O)N[C@@H](Cc1ccccc1)C(=O)O)C(N)=O)[C@H](C)O)C(=O)N[C@@H](Cc1ccc(N)cc1)C(N)=O | 3600 nM
11 | CC[C@H](C)[C@@H](NC(=O)[C@@H](NC(=O)CCCCCCCCCCCCCCC(=O)N[C@H](CC(=O)N[C@@H](Cc1ccccc1)C(=O)O)C(N)=O)[C@H](C)O)C(=O)N[C@@H](Cc1ccc([N+](=O)[O-])cc1)C(N)=O | 590000 nM
12 | CCC(C)[C@@H](NC(=O)[C@@H](NC(=O)CCCCCCCCCCCCCCC(=O)N[C@H](CC(=O)N[C@@H](Cc1ccccc1)C(=O)O)C(N)=O)C(C)O)C(=O)N[C@@H](Cc1ccccc1)C(N)=O (some centres not stated) | 1.1 nM
13 | CC[C@H](C)[C@@H](NC(=O)[C@@H](NC(=O)CCCCCCCCCCCCCCC(=O)N[C@H](CC(=O)N[C@@H](Cc1ccccc1)C(=O)O)C(N)=O)[C@H](C)O)C(=O)NC(CCc1ccccc1)C(N)=O (some centres not stated) | 1300 nM
14 | CCCCC(NC(=O)CCCCCCCCCCCCCCC(=O)N[C@H](CC(=O)N[C@@H](Cc1ccccc1)C(=O)O)C(N)=O)C(=O)N[C@@H](C(=O)N[C@@H](Cc1ccccc1)C(N)=O)C(C)CC (some centres not stated) | 1600 nM
15 | CC[C@H](C)[C@@H](NC(=O)[C@@H](NC(=O)CCCCCCCCCCCCCCC(=O)N[C@H](CC(=O)N[C@@H](Cc1ccccc1)C(=O)O)C(N)=O)[C@H](C)O)C(=O)N[C@H](Cc1ccc(C#N)cc1)C(N)=O | 1400 nM
16 | CC[C@H](C)[C@@H](NC(=O)[C@@H](NC(=O)CCCCCCCCCCCCCCC(=O)N[C@H](CC(=O)N[C@@H](Cc1ccccc1)C(=O)O)C(N)=O)[C@H](C)O)C(=O)N[C@H](Cc1ccc(Br)cc1)C(N)=O | 1700 nM
17 | CCC(C)[C@@H](NC(=O)C(Cc1ccc(F)c(F)c1)NC(=O)CCCCCCCCCCCCCCC(=O)N[C@H](CC(=O)N[C@@H](Cc1ccccc1)C(=O)O)C(N)=O)C(=O)N[C@@H](Cc1ccccc1)C(N)=O (some centres not stated) | 1100 nM
18 | CC[C@H](C)[C@@H](NC(=O)C(NC(=O)CCCCCCCCCCCCCCC(=O)N[C@H](CC(=O)N[C@@H](Cc1ccccc1)C(=O)O)C(N)=O)C(C)(C)C)C(=O)N[C@@H](Cc1ccccc1)C(N)=O (some centres not stated) | 7700 nM

Target: T1, Human immunodeficiency virus type 1 protease
Test: Inhibitory concentration against human immunodeficiency virus -1 protease

Row | SMILES | Ki
19 | CC[C@H](C)[C@@H](NC(=O)[C@@H](NC(=O)CCCCCCCCCCCCCCC(=O)N[C@H](CC(=O)N[C@@H](Cc1ccccc1)C(=O)O)C(N)=O)C(C)O)C(=O)N[C@@](C)(C(N)=O)c1cccc2ccccc12 (some centres not stated) | 127 nM
20 | CC[C@H](C)[C@@H](NC(=O)[C@H]([C@H](C)O)N(C)C(=O)CCCCCCCCCCCCCCC(=O)Nc1ccccc1C(=O)N[C@@H](Cc1ccccc1)C(=O)O)C(=O)NC(CO)C(N)=O (some centres not stated) | 235000 nM
21 | CCC(C)[C@@H](NC(=O)[C@@H](NC(=O)CCCCCCCCCCCCCCC(=O)N[C@@H](C(=O)N[C@@H](Cc1ccccc1)C(=O)O)c1ccc(OCc2ccccc2)cc1)C(C)O)C(=O)NC(CO)C(N)=O (some centres not stated) | 110 nM
22 | CCC(C)[C@@H](NC(=O)C(CCC(C)C)NC(=O)CCCCCCCCCCCCCCC(=O)N[C@H](CC(=O)N[C@@H](Cc1ccccc1)C(=O)O)C(N)=O)C(=O)N[C@@H](Cc1ccccc1)C(N)=O (some centres not stated) | 502000 nM
23 | CCC(C)[C@H](NC(=O)CCCCCCCCCCCCCCC(=O)N[C@@H](CC(N)=O)C(=O)N[C@@H](Cc1ccc([N+](=O)[O-])cc1)C(=O)O)C(=O)N[C@H](Cc1ccccc1)C(N)=O (some centres not stated) | 384 nM
24 | CC(C)C[C@H](NC(=O)[C@@H](NC(=O)CCCCCCCCCCCCCCC(=O)N[C@H](CC(=O)N[C@@H](Cc1ccccc1)C(=O)O)C(N)=O)C(C)O)C(=O)N[C@@H](Cc1ccccc1)C(N)=O (some centres not stated) | 3000 nM
25 | CC[C@H](C)[C@@H](NC(=O)[C@@H](NC(=O)CCCCCCCCCCCCCCC(=O)N[C@H](CC(=O)N[C@@H](Cc1ccccc1)C(=O)O)C(N)=O)[C@H](C)O)C(=O)N[C@@H](Cc1ccc(OCc2ccccc2)cc1)C(N)=O | 414 nM
26 | CC[C@H](C)[C@@H](NC(=O)[C@@H](NC(=O)CCCCCCCCCCCCCCC(=O)N[C@H](CC(=O)N[C@@H](Cc1ccccc1)C(=O)O)C(N)=O)[C@H](C)O)C(=O)N[C@@H](Cc1ccccc1)C(=O)N[C@@H](Cc1ccccc1)C(N)=O | 361 nM
27 | CCC(C)[C@H](NC(=O)CCCCCCCCCCCCCCC(=O)N[C@@H](CC(N)=O)C(=O)N[C@@H](Cc1ccc(C(=O)c2ccccc2)cc1)C(=O)O)C(=O)N[C@H](Cc1ccccc1)C(N)=O (some centres not stated) | 223 nM
28 | CCC(C)[C@@H](NC(=O)[C@@H](NC(=O)CCCCCCCCCCCCCCC(=O)N[C@@H](Cc1ccc(F)c(F)c1)C(=O)N[C@@H](Cc1ccccc1)C(=O)O)C(C)O)C(=O)NC(CO)C(N)=O (some centres not stated) | 106 nM
29 | CCC(C)[C@H](NC(=O)CCCCCCCCCCCCCCC(=O)N[C@@H](CC(N)=O)C(=O)NC(Cc1ccc2ccccc2c1)C(=O)O)C(=O)N[C@H](Cc1ccccc1)C(N)=O (some centres not stated) | 267 nM
30 | CCC(C)[C@H](NC(=O)CCCCCCCCCCCCCCC(=O)N[C@@H](CC(N)=O)C(=O)NC(C(=O)O)C1CCCCC1)C(=O)N[C@H](Cc1ccccc1)C(N)=O (some centres not stated) | 254 nM
31 | CCC(C)[C@@H](NC(=O)[C@@H](NC(=O)CCCCCCCCCCCCCCC(=O)N[C@H](CC(=O)N[C@@H](Cc1ccccc1)C(=O)O)C(N)=O)C(C)O)C(=O)N[C@@H](Cc1ccccc1)C(N)=O (some centres not stated) | 210000 nM
32 | CCC(C)[C@H](NC(=O)CCCCCCCCCCCCCCC(=O)N[C@@H](CC(N)=O)C(=O)N[C@@H](CCc1ccccc1)C(=O)O)C(=O)N[C@H](Cc1ccccc1)C(N)=O (some centres not stated) | 268 nM
33 | CC[C@H](C)[C@@H](NC(=O)[C@H]([C@H](C)O)N(C)C(=O)CCCCCCCCCCCCCCC(=O)N[C@H](Cc1ccccc1)C(=O)N[C@@H](Cc1ccccc1)C(=O)O)C(=O)NC(CO)C(N)=O (some centres not stated) | 112 nM
34 | CC[C@H](C)[C@@H](NC(=O)[C@H]([C@H](C)O)N(C)C(=O)CCCCCCCCCCCCCCC(=O)N[C@@H](C(=O)N[C@@H](Cc1ccccc1)C(=O)O)C(C)C)C(=O)NC(CO)C(N)=O (some centres not stated) | 202 nM
35 | CC[C@H](C)[C@@H](NC(=O)[C@@H](NC(=O)CCCCCCCCCCCCCCC(=O)N[C@H](CC(=O)N[C@@H](Cc1ccccc1)C(=O)O)C(N)=O)[C@H](C)O)C(=O)N[C@@H](Cc1ccc(C(=O)c2ccccc2)cc1)C(N)=O | 314 nM
36 | CC[C@H](C)[C@@H](NC(=O)[C@H]([C@H](C)O)N(C)C(=O)CCCCCCCCCCCCCCC(=O)N[C@H](CCc1ccccc1)C(=O)N[C@@H](Cc1ccccc1)C(=O)O)C(=O)NC(CO)C(N)=O (some centres not stated) | 160 nM
37 | CC[C@H](C)[C@@H](NC(=O)CCCCCCCCCCCCCCC(=O)N(C)[C@H](C(=O)N[C@@H](C(=O)NC(CO)C(N)=O)[C@@H](C)CC)[C@H](C)O)C(=O)N[C@@H](Cc1ccccc1)C(=O)O (some centres not stated) | 140000 nM
38 | CC[C@H](C)[C@@H](NC(=O)[C@H]([C@H](C)O)N(C)C(=O)CCCCCCCCCCCCCCC(=O)NC(CC(C)C)C(=O)N[C@@H](Cc1ccccc1)C(=O)O)C(=O)NC(CO)C(N)=O (some centres not stated) | 273 nM
39 | CCC(C)[C@@H](NC(=O)[C@@H](NC(=O)CCCCCCCCCCCCCCC(=O)N[C@@H](Cc1ccc([N+](=O)[O-])cc1)C(=O)N[C@@H](Cc1ccccc1)C(=O)O)C(C)O)C(=O)NC(CO)C(N)=O (some centres not stated) | 103 nM
40 | CC[C@H](C)[C@@H](NC(=O)[C@@H](NC(=O)CCCCCCCCCCCCCCC(=O)N[C@H](CC(=O)N[C@@H](Cc1ccccc1)C(=O)O)C(N)=O)[C@H](C)O)C(=O)NC(Cc1ccc([N+](=O)[O-])c(O)c1)C(N)=O (some centres not stated) | 164 nM
41 | CCC(C)[C@@H](NC(=O)[C@@H](NC(=O)CCCCCCCCCCCCCCC(=O)N[C@@H](Cc1ccc(O)c([N+](=O)[O-])c1)C(=O)N[C@@H](Cc1ccccc1)C(=O)O)C(C)O)C(=O)NC(CO)C(N)=O (some centres not stated) | 102 nM
42 | CC[C@H](C)[C@@H](NC(=O)[C@H]([C@H](C)O)N(C)C(=O)CCCCCCCCCCCCCCC(=O)N[C@H](Cc1ccc(C#N)cc1)C(=O)N[C@@H](Cc1ccccc1)C(=O)O)C(=O)NC(CO)C(N)=O (some centres not stated) | 140 nM
43 | CCC(C)[C@H](NC(=O)CCCCCCCCCCCCCCC(=O)N[C@@H](CC(N)=O)C(=O)NC(CC1CCCCC1)C(=O)O)C(=O)N[C@H](Cc1ccccc1)C(N)=O (some centres not stated) | 285 nM

Target: Human immunodeficiency virus type 1 protease (Human immunodeficiency virus 1) (UniProt Q72874)
Test: Percent inhibition of human immunodeficiency virus-1 protease after 1 uM treatment

Row | inhibition | SMILES
44 | 7% | CC[C@H](C)[C@@H](NC(=O)C(C)(C)NC(=O)CCCCCCCCCCCCCCC(=O)N[C@H](CC(=O)N[C@@H](Cc1ccccc1)C(=O)O)C(N)=O)C(=O)N[C@@H](Cc1ccccc1)C(N)=O
45 | 45% | CC(O)[C@H](NC(=O)CCCCCCCCCCCCCCC(=O)N[C@H](CC(=O)N[C@@H](Cc1ccccc1)C(=O)O)C(N)=O)C(=O)N[C@@H](C(=O)N[C@@H](Cc1ccccc1)C(N)=O)C1CCCCC1 (some centres not stated)
46 | 13% | CC[C@H](C)[C@@H](NC(=O)C(CC1CCCC1)NC(=O)CCCCCCCCCCCCCCC(=O)N[C@H](CC(=O)N[C@@H](Cc1ccccc1)C(=O)O)C(N)=O)C(=O)N[C@@H](Cc1ccccc1)C(N)=O (some centres not stated)
47 | 12% | CC[C@H](C)[C@@H](NC(=O)CCCCNC(=O)CCCCCCCCCCCCCCC(=O)N[C@H](CC(=O)N[C@@H](Cc1ccccc1)C(=O)O)C(N)=O)C(=O)N[C@@H](Cc1ccccc1)C(N)=O
